Calls of active or inactive are those of the source. The calls are words filed in the database; no cut-off is given here.
Legend:
[1] = molecular target: Bromodomain-containing protein 4 (Homo sapiens, UniProt O60885); experiment: Binding affinity to human BRD4 domain 1 (unknown origin) assessed as dissociation constant by isothermal titration calorimetry assay
[2] = molecular target: Histone deacetylase 1 (Homo sapiens, UniProt Q13547); experiment: Inhibition of human recombinant HDAC1 assessed as fluorescence using fluorogenic substrate ZMAL incubated for 90 min by microplate reader
[3] = molecular target: T1, Protein deacetylase HDAC6 (Homo sapiens, UniProt Q9UBN7); experiment: Inhibition of human recombinant HDAC6 assessed as fluorescence using fluorogenic substrate ZMAL incubated for 90 min by microplate reader
T1 sequence (Q9UBN7 whole entry): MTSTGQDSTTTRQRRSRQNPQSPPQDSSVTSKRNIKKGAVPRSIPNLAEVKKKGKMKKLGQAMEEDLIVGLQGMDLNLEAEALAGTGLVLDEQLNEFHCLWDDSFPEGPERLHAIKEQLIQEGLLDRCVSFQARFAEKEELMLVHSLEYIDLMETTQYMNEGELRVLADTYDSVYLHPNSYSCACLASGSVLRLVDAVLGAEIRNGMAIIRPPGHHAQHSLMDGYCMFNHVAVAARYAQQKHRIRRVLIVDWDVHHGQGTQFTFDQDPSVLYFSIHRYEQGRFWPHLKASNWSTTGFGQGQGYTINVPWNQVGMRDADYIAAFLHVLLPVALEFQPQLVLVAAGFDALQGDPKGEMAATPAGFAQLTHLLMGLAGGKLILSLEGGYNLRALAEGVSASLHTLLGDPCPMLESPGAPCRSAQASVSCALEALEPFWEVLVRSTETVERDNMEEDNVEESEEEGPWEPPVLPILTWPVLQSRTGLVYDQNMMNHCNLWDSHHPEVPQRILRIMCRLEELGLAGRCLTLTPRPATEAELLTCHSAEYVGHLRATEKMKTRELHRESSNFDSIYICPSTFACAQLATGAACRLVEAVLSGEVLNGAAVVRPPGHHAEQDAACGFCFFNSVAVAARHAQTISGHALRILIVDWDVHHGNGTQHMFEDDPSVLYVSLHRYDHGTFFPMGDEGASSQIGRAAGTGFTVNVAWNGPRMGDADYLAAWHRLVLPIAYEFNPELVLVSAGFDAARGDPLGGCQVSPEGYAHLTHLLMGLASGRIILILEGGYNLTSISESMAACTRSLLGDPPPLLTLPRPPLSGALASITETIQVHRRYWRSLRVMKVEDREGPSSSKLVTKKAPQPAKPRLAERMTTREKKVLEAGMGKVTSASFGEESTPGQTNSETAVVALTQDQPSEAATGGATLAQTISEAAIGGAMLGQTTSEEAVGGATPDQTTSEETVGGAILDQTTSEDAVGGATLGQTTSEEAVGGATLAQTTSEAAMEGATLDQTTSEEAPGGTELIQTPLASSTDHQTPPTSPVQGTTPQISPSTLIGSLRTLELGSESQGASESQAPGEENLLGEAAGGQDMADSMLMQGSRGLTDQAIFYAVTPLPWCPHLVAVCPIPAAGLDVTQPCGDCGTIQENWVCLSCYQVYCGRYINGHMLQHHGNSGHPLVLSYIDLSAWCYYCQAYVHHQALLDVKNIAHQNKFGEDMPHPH

[4] = test system: REH; experiment: Anticancer activity against human REH cells assessed as cell growth inhibition by CellTiter-Glo luminescent assay; assay type: functional, cell-based
[5] = test system: K562; experiment: Anticancer activity against human K562 cells assessed as cell growth inhibition by CellTiter-Glo luminescent assay; assay type: functional, cell-based
[6] = test system: K562; experiment: Induction of apoptosis in human K562 cells assessed as apoptosis at 6 uM after 24 to 72 hrs using annexin V/PI followed by flow cytometry; assay type: functional, cell-based; settings: time 24-72 hrs
[7] = test system: HPBALL; experiment: Anticancer activity against human HPBALL cells assessed as cell growth inhibition by CellTiter-Glo luminescent assay; assay type: functional, cell-based
[8] = test system: TALL-1; experiment: Anticancer activity against human TALL-1 cells assessed as cell growth inhibition by CellTiter-Glo luminescent assay; assay type: functional, cell-based
[9] = test system: HAL-01; experiment: Anticancer activity against human HAL-01 cells assessed as cell growth inhibition by CellTiter-Glo luminescent assay; assay type: functional, cell-based
[10] = test system: HL-60; experiment: Anticancer activity against human HL-60 cells assessed as cell growth inhibition by CellTiter-Glo luminescent assay; assay type: functional, cell-based
[11] = test system: K562; experiment: Induction of apoptosis in human K562 cells assessed as increase cleaved PARP expression measured after 24 to 72 hrs by Western blot analysis; assay type: functional, cell-based; settings: time 24-72 hrs
[12] = molecular target: T2, Bromodomain-containing protein 7 (Homo sapiens, UniProt Q9NPI1); experiment: Binding affinity to human BRD7 assessed as dissociation constant by isothermal titration calorimetry assay
T2 sequence (Q9NPI1 whole entry): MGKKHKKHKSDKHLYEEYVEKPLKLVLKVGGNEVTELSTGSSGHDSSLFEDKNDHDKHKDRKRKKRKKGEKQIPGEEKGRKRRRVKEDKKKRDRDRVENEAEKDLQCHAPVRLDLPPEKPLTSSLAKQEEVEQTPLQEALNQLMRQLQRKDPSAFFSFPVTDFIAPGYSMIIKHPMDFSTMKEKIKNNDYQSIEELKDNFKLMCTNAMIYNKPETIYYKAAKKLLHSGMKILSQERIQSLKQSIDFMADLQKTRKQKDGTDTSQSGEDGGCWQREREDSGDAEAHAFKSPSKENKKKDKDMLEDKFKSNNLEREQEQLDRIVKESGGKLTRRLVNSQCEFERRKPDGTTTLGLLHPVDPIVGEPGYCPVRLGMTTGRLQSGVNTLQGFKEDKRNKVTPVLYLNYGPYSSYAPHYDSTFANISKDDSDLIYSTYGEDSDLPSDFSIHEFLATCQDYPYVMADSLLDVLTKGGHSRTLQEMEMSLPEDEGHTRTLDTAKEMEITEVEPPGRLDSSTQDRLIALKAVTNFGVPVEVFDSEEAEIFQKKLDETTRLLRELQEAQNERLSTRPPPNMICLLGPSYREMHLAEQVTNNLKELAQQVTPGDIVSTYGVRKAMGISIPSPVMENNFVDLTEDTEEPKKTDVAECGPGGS

[13] = molecular target: Histone deacetylase 2 (Homo sapiens, UniProt Q92769); experiment: Inhibition of human HDAC2 assessed as target activity using fluorogenic substrate ZMAL for 90 min by microplate reader at 355nm
[14] = molecular target: T3, Histone deacetylase (Homo sapiens) (UniProt Q13547+O15379+Q9UBN7+Q92769+Q9UQL6+Q8WUI4+Q9BY41+Q96DB2+P56524+Q9UKV0+Q969S8); experiment: Inhibition of HDAC in human K562 cells assessed as increase in acetylated alpha-tubulin measured after 48 hrs by Western blot analysis; assay type: cell-based
[15] = molecular target: T3, Histone deacetylase (Homo sapiens); experiment: Inhibition of HDAC in human K562 cells assessed as decrease in MYC expression measured after 24 to 72 hrs by Western blot analysis; assay type: cell-based; settings: time 24-72 hrs
[16] = molecular target: T4, Bromodomain-containing protein 2 (Homo sapiens, UniProt P25440); experiment: Binding affinity to human BRD2 domain 2 assessed as dissociation constant by isothermal titration calorimetry assay
[17] = molecular target: T5, Bromodomain-containing protein 3 (Homo sapiens, UniProt Q15059); experiment: Binding affinity to human BRD3 domain 1 assessed as dissociation constant by isothermal titration calorimetry assay
[18] = molecular target: T4, Bromodomain-containing protein 2; experiment: Binding affinity to human BRD2 domain 1 assessed as dissociation constant by isothermal titration calorimetry assay
[19] = molecular target: Histone deacetylase 3 (Homo sapiens, UniProt O15379); experiment: Inhibition of human HDAC3 assessed as target activity using fluorogenic substrate ZMAL for 90 min by microplate reader at 355nm
[20] = molecular target: T5, Bromodomain-containing protein 3; experiment: Binding affinity to human BRD3 domain 2 assessed as dissociation constant by isothermal titration calorimetry assay
[21] = molecular target: T3, Histone deacetylase (Homo sapiens); experiment: Inhibition of HDAC in human K562 cells assessed as increase in acetylated histone H3 measured after 48 hrs by Western blot analysis; assay type: cell-based
[22] = test system: MOLT-4; experiment: Cytotoxicity against human MOLT-4 cells assessed as cell viability at 5 uM by CellTiter-Glo luminescent assay; assay type: functional; settings: read-out: Activity
[23] = test system: HL-60; experiment: Cytotoxicity against human HL-60 cells assessed as cell viability at 5 uM by CellTiter-Glo luminescent assay; assay type: functional; settings: read-out: Activity
[24] = test system: TALL-1; experiment: Cytotoxicity against human TALL-1 cells assessed as cell viability at 5 uM by CellTiter-Glo luminescent assay; assay type: functional; settings: read-out: Activity
[25] = test system: HPBALL; experiment: Anticancer activity against human HPBALL cells assessed as reduction in size of colony at 5 uM measured after 24 hrs by colony formation assay; assay type: functional, cell-based
[26] = test system: HPBALL; experiment: Anticancer activity against human HPBALL cells assessed as reduction in total number of colony forming units at 5 uM measured after 24 hrs by colony formation assay; assay type: functional, cell-based

T4 sequence (P25440 whole entry, the tested form may be a part): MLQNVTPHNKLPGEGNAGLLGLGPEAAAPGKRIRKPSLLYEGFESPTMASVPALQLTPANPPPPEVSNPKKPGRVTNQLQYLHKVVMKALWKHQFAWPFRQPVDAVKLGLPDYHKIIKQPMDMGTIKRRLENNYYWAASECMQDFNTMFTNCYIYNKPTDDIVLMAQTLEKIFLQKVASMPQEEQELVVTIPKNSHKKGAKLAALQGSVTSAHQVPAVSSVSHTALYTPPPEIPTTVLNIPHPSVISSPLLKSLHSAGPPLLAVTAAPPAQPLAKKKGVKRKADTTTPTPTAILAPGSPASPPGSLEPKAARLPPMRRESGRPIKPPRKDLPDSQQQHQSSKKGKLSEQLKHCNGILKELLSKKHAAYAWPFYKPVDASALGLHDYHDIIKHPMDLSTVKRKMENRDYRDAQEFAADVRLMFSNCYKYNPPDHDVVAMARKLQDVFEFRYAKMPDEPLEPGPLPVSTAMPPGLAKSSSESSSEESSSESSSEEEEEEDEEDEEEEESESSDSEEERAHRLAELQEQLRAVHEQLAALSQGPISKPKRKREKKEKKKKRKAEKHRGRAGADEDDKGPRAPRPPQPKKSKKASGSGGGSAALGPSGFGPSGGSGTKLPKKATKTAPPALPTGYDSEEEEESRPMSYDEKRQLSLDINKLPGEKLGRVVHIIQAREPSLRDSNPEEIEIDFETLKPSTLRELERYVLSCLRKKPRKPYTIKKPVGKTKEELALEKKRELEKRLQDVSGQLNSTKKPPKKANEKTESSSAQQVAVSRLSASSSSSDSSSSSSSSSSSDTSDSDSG
T5 sequence (Q15059 whole entry, the tested form may be a part): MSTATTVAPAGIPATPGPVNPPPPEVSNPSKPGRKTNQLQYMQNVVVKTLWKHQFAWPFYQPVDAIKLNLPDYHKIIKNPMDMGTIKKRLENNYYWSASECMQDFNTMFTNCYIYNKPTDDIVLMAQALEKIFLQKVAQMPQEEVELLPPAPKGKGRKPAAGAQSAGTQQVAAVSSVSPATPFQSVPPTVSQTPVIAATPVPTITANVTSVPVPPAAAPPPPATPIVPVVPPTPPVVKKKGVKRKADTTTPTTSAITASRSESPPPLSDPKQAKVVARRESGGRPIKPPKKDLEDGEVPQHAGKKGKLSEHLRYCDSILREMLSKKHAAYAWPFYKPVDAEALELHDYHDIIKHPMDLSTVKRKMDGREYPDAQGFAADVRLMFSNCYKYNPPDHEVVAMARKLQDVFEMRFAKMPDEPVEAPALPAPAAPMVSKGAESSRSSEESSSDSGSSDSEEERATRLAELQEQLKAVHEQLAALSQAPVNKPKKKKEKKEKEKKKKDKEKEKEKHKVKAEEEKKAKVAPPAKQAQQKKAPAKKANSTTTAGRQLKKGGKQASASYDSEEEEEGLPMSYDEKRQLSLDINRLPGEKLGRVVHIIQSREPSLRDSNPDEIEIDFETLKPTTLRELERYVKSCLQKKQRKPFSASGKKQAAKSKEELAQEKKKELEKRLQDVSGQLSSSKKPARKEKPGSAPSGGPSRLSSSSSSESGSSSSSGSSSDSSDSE
Chain of Histone deacetylase 1 (Q13547 whole entry): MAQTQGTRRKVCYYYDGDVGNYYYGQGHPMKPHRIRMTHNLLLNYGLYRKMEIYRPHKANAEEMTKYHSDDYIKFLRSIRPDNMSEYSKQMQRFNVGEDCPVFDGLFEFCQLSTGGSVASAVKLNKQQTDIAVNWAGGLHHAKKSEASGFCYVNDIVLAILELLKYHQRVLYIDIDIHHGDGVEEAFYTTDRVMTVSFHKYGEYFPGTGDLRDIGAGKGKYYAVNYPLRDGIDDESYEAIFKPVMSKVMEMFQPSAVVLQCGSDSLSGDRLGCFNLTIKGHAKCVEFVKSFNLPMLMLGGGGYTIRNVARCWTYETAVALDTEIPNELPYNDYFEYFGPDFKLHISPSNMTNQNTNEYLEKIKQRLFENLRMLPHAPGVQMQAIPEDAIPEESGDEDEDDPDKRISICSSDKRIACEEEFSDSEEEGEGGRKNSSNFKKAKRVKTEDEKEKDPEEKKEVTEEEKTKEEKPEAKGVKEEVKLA
Chain of Histone deacetylase 2 (Q92769 whole entry): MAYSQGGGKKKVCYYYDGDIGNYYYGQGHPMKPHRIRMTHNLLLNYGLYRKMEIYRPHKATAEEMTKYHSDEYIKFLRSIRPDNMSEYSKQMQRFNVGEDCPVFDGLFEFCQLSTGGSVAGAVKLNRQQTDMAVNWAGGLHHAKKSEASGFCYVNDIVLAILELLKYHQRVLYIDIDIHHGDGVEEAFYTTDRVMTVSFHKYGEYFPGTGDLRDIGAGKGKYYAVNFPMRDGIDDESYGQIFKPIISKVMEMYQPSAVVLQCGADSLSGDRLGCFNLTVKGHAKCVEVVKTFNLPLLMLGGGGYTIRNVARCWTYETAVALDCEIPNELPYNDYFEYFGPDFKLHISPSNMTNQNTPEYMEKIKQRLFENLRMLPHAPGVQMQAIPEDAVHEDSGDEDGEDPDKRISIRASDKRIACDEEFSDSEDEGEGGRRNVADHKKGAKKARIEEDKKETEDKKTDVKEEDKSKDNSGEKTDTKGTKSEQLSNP
Chain of Histone deacetylase 3 (O15379 whole entry, the tested form may be a part): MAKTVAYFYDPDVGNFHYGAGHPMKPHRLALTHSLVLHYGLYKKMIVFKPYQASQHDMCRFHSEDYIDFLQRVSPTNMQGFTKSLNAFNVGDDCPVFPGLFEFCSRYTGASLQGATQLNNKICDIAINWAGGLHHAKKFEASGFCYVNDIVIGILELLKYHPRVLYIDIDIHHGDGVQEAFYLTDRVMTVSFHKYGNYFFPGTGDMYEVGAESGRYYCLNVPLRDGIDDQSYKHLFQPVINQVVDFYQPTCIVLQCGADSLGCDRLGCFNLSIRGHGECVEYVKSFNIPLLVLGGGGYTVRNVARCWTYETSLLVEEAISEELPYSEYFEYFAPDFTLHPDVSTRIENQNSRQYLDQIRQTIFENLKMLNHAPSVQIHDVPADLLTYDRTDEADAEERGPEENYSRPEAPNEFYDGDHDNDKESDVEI

Structure (SMILES) | IC50 [2] | IC50 [3] | Kd ([1]; read-out: Kd) | viability at 5 µM [22] | viability at 5 µM [23] | viability at 5 µM [24] | also measured
Cn1cccc1C(=O)Nc1cccc(CCC(=O)NO)c1 | 1.28 µM | 0.62 µM |  |  |  |  | Kd [1]: Not Active
O=C(CCCCCCNC(=O)c1cnc(N(c2ccccc2)c2ccccc2)nc1)NO [RICOLINOSTAT] |  |  |  |  |  |  | IC50 [4]: > 25 µM; IC50 [5]: 6.02 µM; Activity [6]: Active; IC50 [7]: 6.7 µM; IC50 [8]: 3.88 µM; IC50 [9]: > 25 µM; IC50 [10]: 10.4 µM; Activity [11]: Active
Cc1sc2c(c1C)C(c1ccc(Cl)cc1)=N[C@@H](CC(=O)Nc1ccc(O)cc1)c1nnc(C)n1-2 [BIRABRESIB] |  |  |  |  |  |  | IC50 [4]: 15.3 µM; IC50 [5]: 2.84 µM; IC50 [7]: 7.01 µM; IC50 [8]: 1.35 µM; IC50 [9]: 2.53 µM; IC50 [10]: 0.82 µM
CCc1c(C(=O)Nc2cccc(CCC(=O)OC)c2)[nH]c(C)c1C(C)=O | > 33.3 µM | > 33.3 µM | 8.26 µM |  |  |  | 
CCc1c(C(=O)Nc2cc(/C=C/C(=O)NO)ccc2O)[nH]c(C)c1C(C)=O | 0.142 µM | 0.08 µM | 2.66 µM | 105% | 88.2% | 87.6% | 
CCc1c(C(=O)Nc2cc(S(=O)(=O)N(CC)CC)ccc2O)[nH]c(C)c1C(C)=O |  |  |  |  |  |  | Kd [16]: 0.83 µM; Kd [17]: 0.38 µM; Kd [18]: 0.17 µM; Kd [20]: 0.49 µM
Cc1c2c(c(C(=O)Nc3cc(S(=O)(=O)N4CCOCC4)ccc3OCCCCCCCC(=O)NO)n1C)CCCCC2=O | 0.33 µM | 0.32 µM |  | 115% | 80.8% | 82.3% | Activity [25]: Active; Activity [26]: Active

Continued, in another order:

IC50 [2] | IC50 [3] | Kd ([1]; read-out: Kd) | Structure (SMILES) | viability at 5 µM [22] | viability at 5 µM [23] | viability at 5 µM [24] | also measured
28.2 µM | > 100 µM | 6.92 µM | CCc1c(C(=O)Nc2cccc(CCC(=O)Nc3ccccc3N)c2)[nH]c(C)c1C(C)=O |  |  |  | 
0.125 µM | 0.045 µM | 4.5 µM | CCc1c(C(=O)Nc2cccc(/C=C/C(=O)NO)c2)[nH]c(C)c1C(C)=O |  |  |  | IC50 [4]: > 25 µM; Kd [12]: > 10 µM; IC50 [5]: 7.38 µM; IC50 [13]: 0.168 µM; inhibition [14]: Active; Activity [15]: Active; IC50 [7]: > 25 µM; Kd [16]: > 10 µM; Kd [17]: > 10 µM; Kd [18]: 7.7 µM; IC50 [8]: 5.16 µM; IC50 [9]: > 25 µM; IC50 [19]: 0.149 µM; IC50 [10]: > 25 µM; Kd [20]: > 10 µM; Activity [21]: Active
0.9 µM | 0.658 µM | 11.5 µM | CCc1c(C(=O)Nc2cccc(CCC(=O)NO)c2)[nH]c(C)c1C(C)=O |  |  |  | 
> 10 µM | > 10 µM | 0.034 µM | COC(=O)CCCCCCCOc1ccc(S(=O)(=O)N2CCOCC2)cc1NC(=O)c1c2c(c(C)n1C)C(=O)CCCC2 | 68.6% | 104% | 70.3% | 
0.097 µM | 0.073 µM | 3.67 µM | CCc1c(C(=O)Nc2cc(S(=O)(=O)Nc3cccc(/C=C/C(=O)NO)c3)ccc2OC)[nH]c(C)c1C(C)=O | 106% | 98.7% | 85.6% | 

From ChEMBL document CHEMBL5055650, “4-Acyl Pyrrole Capped HDAC Inhibitors: A New Scaffold for Hybrid Inhibitors of BET Proteins and Histone Deacetylases as Antileukemia Drug Leads” (J Med Chem, 2021)
